Measured values from patent publication US8192962B2, “Processes for detecting toxic substances” (Daikin Industries, Ltd., priority 2001, dated 2012).

Legend:
DNA repair protein genes = assay: DNA chip mRNA expression in yeast, DNA repair protein genes (Table 3); assay type: cell-based, Saccharomyces cerevisiae S288C; details: incubated two hours, concentrations as in the 1st table
How it was run: (§1)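 Expression change after 2 h toxicant exposure (growth-inhibiting, sub-lethal) of log-phase S. cerevisiae S288C at 25° C. Oligo-dT-purified mRNA was labeled with Cy3-dUTP or Cy5-dUTP and hybridized >12 h at 65° C. to a genome-wide chip; ratio of scanned fluorescence to control.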

[1] = test system: Detoxification protein genes; assay: DNA chip mRNA expression in yeast, detoxification protein genes (Table 8); assay type: cell-based, Saccharomyces cerevisiae S288C
How it was run: as §1

manganese ethylenebis(dithiocarbamate) [(8)]
The level of expressed mRNA in the presence of chemical substance/The level of expressed mRNA in the absence of chemical substance (DNA repair protein genes; yeast gene YAL015C): 1.1 | The level of expressed mRNA in the presence of chemical substance/The level of expressed mRNA in the absence of chemical substance (DNA repair protein genes; yeast gene YAR007C): 1.1 | The level of expressed mRNA in the presence of chemical substance/The level of expressed mRNA in the absence of chemical substance (DNA repair protein genes; yeast gene YBL019W): 1.2 | The level of expressed mRNA in the presence of chemical substance/The level of expressed mRNA in the absence of chemical substance (DNA repair protein genes; yeast gene YBR073W): 1.1 | The level of expressed mRNA in the presence of chemical substance/The level of expressed mRNA in the absence of chemical substance (DNA repair protein genes; yeast gene YBR272C): 1.1 | The level of expressed mRNA in the presence of chemical substance/The level of expressed mRNA in the absence of chemical substance (DNA repair protein genes; yeast gene YCR014C): 1.0 | The level of expressed mRNA in the presence of chemical substance/The level of expressed mRNA in the absence of chemical substance (DNA repair protein genes; yeast gene YDL017W): 1.2 | The level of expressed mRNA in the presence of chemical substance/The level of expressed mRNA in the absence of chemical substance (DNA repair protein genes; yeast gene YDL059C): 1.2 | The level of expressed mRNA in the presence of chemical substance/The level of expressed mRNA in the absence of chemical substance (DNA repair protein genes; yeast gene YDL200C): 1.5 | The level of expressed mRNA in the presence of chemical substance/The level of expressed mRNA in the absence of chemical substance (DNA repair protein genes; yeast gene YDR054C): 1.5 | The level of expressed mRNA in the presence of chemical substance/The level of expressed mRNA in the absence of chemical substance (DNA repair protein genes; yeast gene YDR369C): 1.0 | The level of expressed mRNA in the presence of chemical substance/The level of expressed mRNA in the absence of chemical substance (DNA repair protein genes; yeast gene YEL019C): 0.9 | The level of expressed mRNA in the presence of chemical substance/The level of expressed mRNA in the absence of chemical substance (DNA repair protein genes; yeast gene YEL037C): 0.8 | The level of expressed mRNA in the presence of chemical substance/The level of expressed mRNA in the absence of chemical substance (DNA repair protein genes; yeast gene YER162C): 0.9 | The level of expressed mRNA in the presence of chemical substance/The level of expressed mRNA in the absence of chemical substance (DNA repair protein genes; yeast gene YFL014W): 3.4 | The level of expressed mRNA in the presence of chemical substance/The level of expressed mRNA in the absence of chemical substance (DNA repair protein genes; yeast gene YGL058W): 1.3 | The level of expressed mRNA in the presence of chemical substance/The level of expressed mRNA in the absence of chemical substance (DNA repair protein genes; yeast gene YGL091C): 1.8 | The level of expressed mRNA in the presence of chemical substance/The level of expressed mRNA in the absence of chemical substance (DNA repair protein genes; yeast gene YGL127C): 0.9 | The level of expressed mRNA in the presence of chemical substance/The level of expressed mRNA in the absence of chemical substance (DNA repair protein genes; yeast gene YGL163C): 1.4 | The level of expressed mRNA in the presence of chemical substance/The level of expressed mRNA in the absence of chemical substance (DNA repair protein genes; yeast gene YGL249W): 0.9 | The level of expressed mRNA in the presence of chemical substance/The level of expressed mRNA in the absence of chemical substance (DNA repair protein genes; yeast gene YGR180C): 1.0 | The level of expressed mRNA in the presence of chemical substance/The level of expressed mRNA in the absence of chemical substance (DNA repair protein genes; yeast gene YGR231C): 1.1 | The level of expressed mRNA in the presence of chemical substance/The level of expressed mRNA in the absence of chemical substance (DNA repair protein genes; yeast gene YGR258C): 0.8 | The level of expressed mRNA in the presence of chemical substance/The level of expressed mRNA in the absence of chemical substance (DNA repair protein genes; yeast gene YHR164C): 1.1 | The level of expressed mRNA in the presence of chemical substance/The level of expressed mRNA in the absence of chemical substance (DNA repair protein genes; yeast gene YIL036W): 1.1 | The level of expressed mRNA in the presence of chemical substance/The level of expressed mRNA in the absence of chemical substance (DNA repair protein genes; yeast gene YIL072W): 1.4 | The level of expressed mRNA in the presence of chemical substance/The level of expressed mRNA in the absence of chemical substance (DNA repair protein genes; yeast gene YIL143C): 0.9 | The level of expressed mRNA in the presence of chemical substance/The level of expressed mRNA in the absence of chemical substance (DNA repair protein genes; yeast gene YIL153W): 0.5 | The level of expressed mRNA in the presence of chemical substance/The level of expressed mRNA in the absence of chemical substance (DNA repair protein genes; yeast gene YIR002C): 1.2 | The level of expressed mRNA in the presence of chemical substance/The level of expressed mRNA in the absence of chemical substance (DNA repair protein genes; yeast gene YJL026W): 1.2 | The level of expressed mRNA in the presence of chemical substance/The level of expressed mRNA in the absence of chemical substance (DNA repair protein genes; yeast gene YJR046W): 0.9 | The level of expressed mRNA in the presence of chemical substance/The level of expressed mRNA in the absence of chemical substance (DNA repair protein genes; yeast gene YJR052W): 1.7 | The level of expressed mRNA in the presence of chemical substance/The level of expressed mRNA in the absence of chemical substance (DNA repair protein genes; yeast gene YKL145W): 1.5 | The level of expressed mRNA in the presence of chemical substance/The level of expressed mRNA in the absence of chemical substance (DNA repair protein genes; yeast gene YLR103C): 1.4 | The level of expressed mRNA in the presence of chemical substance/The level of expressed mRNA in the absence of chemical substance (DNA repair protein genes; yeast gene YLR233C): 1.1 | The level of expressed mRNA in the presence of chemical substance/The level of expressed mRNA in the absence of chemical substance (DNA repair protein genes; yeast gene YLR288C): 1.5 | The level of expressed mRNA in the presence of chemical substance/The level of expressed mRNA in the absence of chemical substance (DNA repair protein genes; yeast gene YML032C): 0.9 | The level of expressed mRNA in the presence of chemical substance/The level of expressed mRNA in the absence of chemical substance (DNA repair protein genes; yeast gene YML058W): 0.7 | The level of expressed mRNA in the presence of chemical substance/The level of expressed mRNA in the absence of chemical substance (DNA repair protein genes; yeast gene YMR035W): 1.4 | The level of expressed mRNA in the presence of chemical substance/The level of expressed mRNA in the absence of chemical substance (DNA repair protein genes; yeast gene YMR072W): 1.0 | The level of expressed mRNA in the presence of chemical substance/The level of expressed mRNA in the absence of chemical substance (DNA repair protein genes; yeast gene YMR096W): 2.0 | The level of expressed mRNA in the presence of chemical substance/The level of expressed mRNA in the absence of chemical substance (DNA repair protein genes; yeast gene YMR284W): 1.1 | The level of expressed mRNA in the presence of chemical substance/The level of expressed mRNA in the absence of chemical substance (DNA repair protein genes; yeast gene YNL213C): 1.8 | The level of expressed mRNA in the presence of chemical substance/The level of expressed mRNA in the absence of chemical substance (DNA repair protein genes; yeast gene YNL250W): 1.3 | The level of expressed mRNA in the presence of chemical substance/The level of expressed mRNA in the absence of chemical substance (DNA repair protein genes; yeast gene YNL261W): 1.1 | The level of expressed mRNA in the presence of chemical substance/The level of expressed mRNA in the absence of chemical substance (DNA repair protein genes; yeast gene YNL312W): 1.2 | The level of expressed mRNA in the presence of chemical substance/The level of expressed mRNA in the absence of chemical substance (DNA repair protein genes; yeast gene YOL043C): 0.9 | The level of expressed mRNA in the presence of chemical substance/The level of expressed mRNA in the absence of chemical substance (DNA repair protein genes; yeast gene YOR005C): 1.3 | The level of expressed mRNA in the presence of chemical substance/The level of expressed mRNA in the absence of chemical substance (DNA repair protein genes; yeast gene YOR386W): 1.0 | The level of expressed mRNA in the presence of chemical substance/The level of expressed mRNA in the absence of chemical substance (DNA repair protein genes; yeast gene YPL022W): 1.0 | The level of expressed mRNA in the presence of chemical substance/The level of expressed mRNA in the absence of chemical substance (DNA repair protein genes; yeast gene YPL164C): 1.0 | The level of expressed mRNA in the presence of chemical substance/The level of expressed mRNA in the absence of chemical substance (DNA repair protein genes; yeast gene YPL194W): 1.3 | The level of expressed mRNA in the presence of chemical substance/The level of expressed mRNA in the absence of chemical substance (DNA repair protein genes; yeast gene YPR025C): 1.3 | The level of expressed mRNA in the presence of chemical substance/The level of expressed mRNA in the absence of chemical substance ([1]; yeast gene YBL064C): 2.4 | The level of expressed mRNA in the presence of chemical substance/The level of expressed mRNA in the absence of chemical substance ([1]; yeast gene YBR008C): 2.8 | The level of expressed mRNA in the presence of chemical substance/The level of expressed mRNA in the absence of chemical substance ([1]; yeast gene YBR145W): 1.0
